# Patent publication US20230202997A1, “CHROMANOL, QUINONE OR HYDROQUINONE COMPOUNDS FOR TREATMENT OF SEPSIS” (Sulfateq B.V., priority 2020, published 2023)
# Assays:
# [1] = system: plasma levels of IL-6, TNF-α and IL12; assay: CLP sepsis model, plasma cytokines by ELISA; assay type: in vivo; conditions: CLP mice; SUL-138 5 mg/kg s.c. 2 h before and 8 h after surgery; 24 hours
# Description: To induce sepsis, the standard cecal ligation and puncture (CLP) model was used. Animals were anesthetized by subcutaneous injection of xylazine/ketamine (100/10 mg/kg), followed by administration of buprenorphine (0.1 mg/kg) as analgesic. After confirmation of anesthesia by lack of response to paw pinch and eye reflex, the abdomen was shaved, cleaned, and de-germed using a povidone-iodine solution before a 1-cm midline incision was made. The cecum was ligated with a 6-0 suture at half the distance between distal pole and the base of the cecum and punctured once with a 21-Gauge needle (‘through-and-through’ from mesenteric toward anti-mesenteric direction) which is an accepted model for ‘mid-grade’ sepsis. A small amount of stool (2-3 mm) was then extruded to ensure wound patency. The cecum was repositioned, thereby taking care not to spill fecal material on the wound edges, followed by closure of the abdomen by running sutures to the abdominal musculature and short interrupted sutures to the skin. Next, 1 ml of saline (warmed, 0.9% NaCl s.c.) was administered to compensate for the expected relative volume depletion due to the onset of sepsis.
# Mice in the SUL-138 treated groups were injection with SUL-138 (dissolved in saline, 5 mg/kg, s.c.) at 2 hours before and 8 hours after surgery, while mice in the other groups were injected with an equal volume of saline at these time-points.
# Mice were sacrificed 24 hours after the procedure. Upon euthanization, EDTA-anticoagulated blood was separated into plasma by centrifugation at 1,600 g for 10 min and serum by allowing it to clot for 30 min followed by centrifugation at 3,000 g for 10 min.
# To quantify the effect of sepsis severity and treatment with SUL-138 on systemic inflammation, levels of TNFα, IL-6 and IL-12 in plasma were measured using Mouse DuoSet ELISAs (DY410, DY406 and D419, respectively, RnD-Systems), according to the manufacturer's instructions. […] The optical density (OD) was measured using a microplate reader set to 450 nm, while readings at 540 nm were subtracted as correction to increase accuracy.
# [2] = system: HUVEC; assay: HUVEC cell survival after 48 hours LPS (Cyquant); assay type: cell-based, Human; conditions: 48 hours with LPS, SUL-138 pre-incubation
# Description: Human Umbilical Vein Endothelial cells (HUVEC) were obtained from the RuG/UMCG Endothelial Cell Facility. Primary isolates of umbilical cords were mixed and subsequently cultured on HUVEC culture medium, consisted of RPMI 1640 (Lonza, art.nr. BE12-115F) supplemented with 20% heat-inactivated fetal calf serum (ThermoFisher Scientific, art.nr. 10082147), 2 mM 1-glutamine (Life Technologies art.nr. 25030), 5 U/ml heparin (Leo Pharmaceutical Products), 1% Penicillin/Streptomycin (Sigma-Aldrich art.nr. P4333), and 50 μg/ml EC growth factor supplement from (Sigma-Aldrich, art.nr. E2759).
# Primary HUVECs were cultured in 75-cm2 tissue culture flasks (Corning, art.nr. 430720U) at 37° C. under 5% CO2/95% air. HUVECs were used for experiments up to passage 8. Experiments were performed in 6-well (Corning art.nr. 3506) or 96-well culture plates (Corning, art.nr. 3596), at 80% confluency. Cells were stimulated with LPS E. coli 0111:B4 (Sigma-Aldrich, art.nr. L2630) in different concentrations. Cells were detached with trypsin (Sigma-Aldrich, art.nr. 25300054). All compounds were dissolved in Hanks Balanced Salt Solution (Lonza, art.nr. 10-527F).
# HUVECs were pre-incubated with SUL-138 in an amount of 10 microgram/ml, which was added one hour prior to LPS-stimulation. Such pre-incubation is the standard in in vitro models.
# [3] = system: IL-1β mRNA expression; assay: Inhibition of LPS-induced IL-1β mRNA expression in HUVEC; assay type: cell-based, Human; conditions: 10 μM for 30 min, then LPS 24 hours
# Description: (§1) Human Umbilical Cord Endothelial Cells (HUVEC, Lonza CC-2519) were maintained on 1% gelatin-coated culture flasks in RPMI1640 medium containing 20% fetal bovine serum, 2 mM Glutamine (Sigma-Aldrich), 1% Penicillin-Streptomycin solution (Sigma-Aldrich) and 50 μg/ml Bovine Pituitary Extract (Invitrogen). HUVEC were passaged by trypsinization when the cultures reach a confluency of 70%. For all experiments, HUVEC were seeded at 0.6·10^5 cells/cm^2 and allowed to adhere for 24 hours.
# (§2) HUVEC and NRK52E cells were pre-incubated with SUL compounds (10 μM) for 30 min and subsequently exposed to LPS for 24 hours under standard culture conditions. Cells were lysed in triZOL reagens (Invitrogen) and total RNA isolated according to manufacturers' instruction. 1 μg total RNA per sample was reverse transcribed using the FirstAid Reverse Transcription Kit (ThermoFisher). Copy-DNA equivalents of 5 ng total RNA were amplified on a ViiA7 Real-time PCR system (ThermoFisher, Waltham, Mass.) using iTaq Universal SYBR Green Supermix (Bio-Rad, Hercules, Calif.) and primers specific for tumor necrosis factor alpha, interleukin 1 beta, interleukin-6 and beta actin as loading control. Amplification was performed for 40 cycles of 95° C. for 30 s, 60° C. for 1 min. Relative mRNA expression was calculated as 2^−(Cq^gene^−Cq^reference^) and normalized to unstimulated control cells (100% inhibition) and vehicle-treated and LPS exposed cells (0% inhibition). The following primers were used: […]
# [4] = system: IL-6 mRNA expression; assay: Inhibition of LPS-induced IL-6 mRNA expression in HUVEC; assay type: cell-based, Human; conditions: 10 μM for 30 min, then LPS 24 hours
# Description: as §1, §2
smiles,measurement,setting,value
"Cc1c(C)c2c(c(C)c1O)CC[C@@](C)(C(=O)N1CCN(CCO)CC1)O2 [SUL-138, (S)-(6-hydroxy-2,5,7,8-tetramethylchroman-2-yl)(4-(2-hydroxyethyl)piperazin-1-yl)methanone]",plasma level of IL12,[1],decreased by treatment with SUL-138 to levels close to untreated control
same,plasma level of IL-6,[1],decreased by treatment with SUL-138 to levels close to untreated control
same,plasma level of TNF-α,[1],"clearly lower, but the difference did not reach significance"
same,cell survival (Cyquant),[2],restores cell survival after 48 hours
same,inhibition of LPS-induced mRNA expression of IL-1β,[3],76.3 ± 7.9 %
same,inhibition of LPS-induced mRNA expression of IL-6,[4],68.3 ± 6.7 %
